Test results from ChEMBL document CHEMBL3784933, “Synthesis and antitumor evaluation of trimethoxyanilides based on 4(3H)-quinazolinone scaffolds” (2016).

How the values were obtained:
Type in all cases: functional
K562 = assay: Cytotoxicity against human K562 cells assessed as growth inhibition at 10 uM after 48 hrs by SRB assay; details: K562, 48 h, read-out: GI
[1] = Cytotoxicity against human MOLT4 cells assessed as growth inhibition at 10 uM after 48 hrs by SRB assay; details: MOLT-4, 48 h, read-out: GI
[2] = Cytotoxicity against human RPMI8226 cells assessed as growth inhibition at 10 uM after 48 hrs by SRB assay; details: RPMI-8226, 48 h, read-out: GI
A549 = assay: Cytotoxicity against human A549 cells assessed as growth inhibition at 10 uM after 48 hrs by SRB assay; details: A549, 48 h, read-out: GI
EKVX = assay: Cytotoxicity against human EKVX cells assessed as growth inhibition at 10 uM after 48 hrs by SRB assay; details: read-out: GI
[3] = Cytotoxicity against human HOP92 cells assessed as growth inhibition at 10 uM after 48 hrs by SRB assay; details: HOP-92, 48 h, read-out: GI
NCI-H226 = assay: Cytotoxicity against human NCI-H226 cells assessed as growth inhibition at 10 uM after 48 hrs by SRB assay; details: NCI-H226, 48 h, read-out: GI
NCI-H23 = assay: Cytotoxicity against human NCI-H23 cells assessed as growth inhibition at 10 uM after 48 hrs by SRB assay; details: NCI-H23, 48 h, read-out: GI
NCI-H522 = assay: Cytotoxicity against human NCI-H522 cells assessed as growth inhibition at 10 uM after 48 hrs by SRB assay; details: NCI-H522, 48 h, read-out: GI
[4] = Cytotoxicity against human HCT116 cells assessed as growth inhibition at 10 uM after 48 hrs by SRB assay; details: HCT-116, 48 h, read-out: GI
[5] = Cytotoxicity against human HCT15 cells assessed as growth inhibition at 10 uM after 48 hrs by SRB assay; details: HCT-15, 48 h, read-out: GI
KM12 = assay: Cytotoxicity against human KM12 cells assessed as growth inhibition at 10 uM after 48 hrs by SRB assay; details: KM12, 48 h, read-out: GI
[6] = Cytotoxicity against human SF268 cells assessed as growth inhibition at 10 uM after 48 hrs by SRB assay; details: SF-268, 48 h, read-out: GI
[7] = Cytotoxicity against human SF295 cells assessed as growth inhibition at 10 uM after 48 hrs by SRB assay; details: SF-295, 48 h, read-out: GI
[8] = Cytotoxicity against human SNB19 cells assessed as growth inhibition at 10 uM after 48 hrs by SRB assay; details: SNB-19, 48 h, read-out: GI
[9] = Cytotoxicity against human SNB75 cells assessed as growth inhibition at 10 uM after 48 hrs by SRB assay; details: SNB-75, 48 h, read-out: GI
U-251 = assay: Cytotoxicity against human U251 cells assessed as growth inhibition at 10 uM after 48 hrs by SRB assay; details: U-251, 48 h, read-out: GI
[10] = Cytotoxicity against human LOXIMVI cells assessed as growth inhibition at 10 uM after 48 hrs by SRB assay; details: LOX IMVI, read-out: GI
Malme-3M = assay: Cytotoxicity against human MALME-3M cells assessed as growth inhibition at 10 uM after 48 hrs by SRB assay; details: read-out: GI
M14 = assay: Cytotoxicity against human M14 cells assessed as growth inhibition at 10 uM after 48 hrs by SRB assay; details: M14, 48 h, read-out: GI
MDA-MB-435 = assay: Cytotoxicity against human MDA-MB-435 cells assessed as growth inhibition at 10 uM after 48 hrs by SRB assay; details: MDA-MB-435, 48 h, read-out: GI
SK-MEL-5 = assay: Cytotoxicity against human SK-MEL-5 cells assessed as growth inhibition at 10 uM after 48 hrs by SRB assay; details: SK-MEL-5, 48 h, read-out: GI
[11] = Cytotoxicity against human UACC62 cells assessed as growth inhibition at 10 uM after 48 hrs by SRB assay; details: UACC-62, 48 h, read-out: GI
[12] = Cytotoxicity against human IGROV1 cells assessed as growth inhibition at 10 uM after 48 hrs by SRB assay; details: IGROV-1, 48 h, read-out: GI
[13] = Cytotoxicity against human OVCAR3 cells assessed as growth inhibition at 10 uM after 48 hrs by SRB assay; details: OVCAR-3, 48 h, read-out: GI
[14] = Cytotoxicity against human OVCAR4 cells assessed as growth inhibition at 10 uM after 48 hrs by SRB assay; details: OVCAR-4, 48 h, read-out: GI
[15] = Cytotoxicity against human OVCAR5 cells assessed as growth inhibition at 10 uM after 48 hrs by SRB assay; details: OVCAR-5, 48 h, read-out: GI
[16] = Cytotoxicity against human OVCAR8 cells assessed as growth inhibition at 10 uM after 48 hrs by SRB assay; details: OVCAR-8, 48 h, read-out: GI
[17] = Cytotoxicity against human NCI-ADR-RES cells assessed as growth inhibition at 10 uM after 48 hrs by SRB assay; details: read-out: GI
[18] = Cytotoxicity against human SKOV3 cells assessed as growth inhibition at 10 uM after 48 hrs by SRB assay; details: SK-OV-3, 48 h, read-out: GI
786-0 = assay: Cytotoxicity against human 786-0 cells assessed as growth inhibition at 10 uM after 48 hrs by SRB assay; details: 786-0, 48 h, read-out: GI
A498 = assay: Cytotoxicity against human A498 cells assessed as growth inhibition at 10 uM after 48 hrs by SRB assay; details: A498, 48 h, read-out: GI
ACHN = assay: Cytotoxicity against human ACHN cells assessed as growth inhibition at 10 uM after 48 hrs by SRB assay; details: read-out: GI
[19] = Cytotoxicity against human Caki1 cells assessed as growth inhibition at 10 uM after 48 hrs by SRB assay; details: CAKI-1, 48 h, read-out: GI
[20] = Cytotoxicity against human RXF393 cells assessed as growth inhibition at 10 uM after 48 hrs by SRB assay; details: RXF 393, 48 h, read-out: GI
SN12C = assay: Cytotoxicity against human SN12C cells assessed as growth inhibition at 10 uM after 48 hrs by SRB assay; details: read-out: GI
[21] = Cytotoxicity against human UO31 cells assessed as growth inhibition at 10 uM after 48 hrs by SRB assay; details: UO-31, 48 h, read-out: GI
[22] = Cytotoxicity against human PC3 cells assessed as growth inhibition at 10 uM after 48 hrs by SRB assay; details: PC-3, 48 h, read-out: GI
MCF7 = assay: Cytotoxicity against human MCF7 cells assessed as growth inhibition at 10 uM after 48 hrs by SRB assay; details: MCF7, 48 h, read-out: GI
MDA-MB-231 = assay: Cytotoxicity against human MDA-MB-231 cells assessed as growth inhibition at 10 uM after 48 hrs by SRB assay; details: MDA-MB-231, 48 h, read-out: GI
[23] = Cytotoxicity against human Hs 578T cells assessed as growth inhibition at 10 uM after 48 hrs by SRB assay; details: read-out: GI
T47D = assay: Cytotoxicity against human T47D cells assessed as growth inhibition at 10 uM after 48 hrs by SRB assay; details: read-out: GI
[24] = Cytotoxicity against human NCI-H322 cells assessed as growth inhibition at 10 uM after 48 hrs by SRB assay; details: NCI-H322, 48 h, read-out: GI
CCRF-CEM = assay: Cytotoxicity against human CCRF-CEM cells assessed as growth inhibition at 10 uM after 48 hrs by SRB assay; details: read-out: GI
[25] = Cytotoxicity against human HL-60(TB) cells assessed as growth inhibition at 10 uM after 48 hrs by SRB assay; details: HL-60, 48 h, read-out: GI
SR = assay: Cytotoxicity against human SR cells assessed as growth inhibition at 10 uM after 48 hrs by SRB assay; details: read-out: GI
[26] = Cytotoxicity against human SW620 cells assessed as growth inhibition at 10 uM after 48 hrs by SRB assay; details: SW-620, 48 h, read-out: GI
SK-MEL-2 = assay: Cytotoxicity against human SK-MEL-2 cells assessed as growth inhibition at 10 uM after 48 hrs by SRB assay; details: SK-MEL-2, 48 h, read-out: GI
SK-MEL-28 = assay: Cytotoxicity against human SK-MEL-28 cells assessed as growth inhibition at 10 uM after 48 hrs by SRB assay; details: SK-MEL-28, 48 h, read-out: GI
[27] = Cytotoxicity against human UACC257 cells assessed as growth inhibition at 10 uM after 48 hrs by SRB assay; details: UACC-257, 48 h, read-out: GI
[28] = Cytotoxicity against human BT549 cells assessed as growth inhibition at 10 uM after 48 hrs by SRB assay; details: BT-549, 48 h, read-out: GI
MDA-MB-468 = assay: Cytotoxicity against human MDA-MB-468 cells assessed as growth inhibition at 10 uM after 48 hrs by SRB assay; details: MDA-MB-468, 48 h, read-out: GI
[29] = Cytotoxicity against human OVCAR1 cells assessed as growth inhibition at 10 uM after 48 hrs by SRB assay; details: OVCAR1, 48 h, read-out: GI

Structure (SMILES): COc1cc(NC(=O)CSc2nc3ccc(Cl)cc3c(=O)n2-c2ccc(F)cc2)cc(OC)c1OC
- inhibition of growth at 10 µM (K562): 20%
- inhibition of growth at 10 µM [1]: 39%
- inhibition of growth at 10 µM [2]: 61%
- inhibition of growth at 10 µM (A549): 17%
- inhibition of growth at 10 µM (EKVX): 33%
- inhibition of growth at 10 µM [3]: 64%
- inhibition of growth at 10 µM (NCI-H226): 17%
- inhibition of growth at 10 µM (NCI-H23): 15%
- inhibition of growth at 10 µM (NCI-H522): 21%
- inhibition of growth at 10 µM [4]: 21%
- inhibition of growth at 10 µM [5]: 16%
- inhibition of growth at 10 µM (KM12): 15%
- inhibition of growth at 10 µM [6]: 21%
- inhibition of growth at 10 µM [7]: 20%
- inhibition of growth at 10 µM [8]: 18%
- inhibition of growth at 10 µM [9]: 28%
- inhibition of growth at 10 µM (U-251): 18%
- inhibition of growth at 10 µM [10]: 27%
- inhibition of growth at 10 µM (Malme-3M): 15%
- inhibition of growth at 10 µM (M14): 16%
- inhibition of growth at 10 µM (MDA-MB-435): 10%
- inhibition of growth at 10 µM (SK-MEL-5): 27%
- inhibition of growth at 10 µM [11]: 29%
- inhibition of growth at 10 µM [12]: 14%
- inhibition of growth at 10 µM [13]: 20%
- inhibition of growth at 10 µM [14]: 23%
- inhibition of growth at 10 µM [15]: 12%
- inhibition of growth at 10 µM [16]: 12%
- inhibition of growth at 10 µM [17]: 19%
- inhibition of growth at 10 µM [18]: 13%
- inhibition of growth at 10 µM (786-0): 25%
- inhibition of growth at 10 µM (A498): 66%
- inhibition of growth at 10 µM (ACHN): 15%
- inhibition of growth at 10 µM [19]: 29%
- inhibition of growth at 10 µM [20]: 20%
- inhibition of growth at 10 µM (SN12C): 22%
- inhibition of growth at 10 µM [21]: 60%
- inhibition of growth at 10 µM [22]: 27%
- inhibition of growth at 10 µM (MCF7): 13%
- inhibition of growth at 10 µM (MDA-MB-231): 34%
- inhibition of growth at 10 µM [23]: 26%
- inhibition of growth at 10 µM (T47D): 28%
- inhibition of growth at 10 µM [24]: 14%

Structure (SMILES): COc1cc(NC(=O)CSc2nc3ccc(C)cc3c(=O)n2-c2ccccc2)cc(OC)c1OC
- inhibition of growth at 10 µM (CCRF-CEM): 17%
- inhibition of growth at 10 µM [25]: 11%
- inhibition of growth at 10 µM (K562): 13%
- inhibition of growth at 10 µM [1]: 41%
- inhibition of growth at 10 µM [2]: 24%
- inhibition of growth at 10 µM (SR): 58%
- inhibition of growth at 10 µM (A549): 17%
- inhibition of growth at 10 µM [3]: 51%
- inhibition of growth at 10 µM (NCI-H226): 18%
- inhibition of growth at 10 µM (NCI-H23): 16%
- inhibition of growth at 10 µM (NCI-H522): 32%
- inhibition of growth at 10 µM [4]: 13%
- inhibition of growth at 10 µM [5]: 19%
- inhibition of growth at 10 µM (KM12): 25%
- inhibition of growth at 10 µM [26]: 13%
- inhibition of growth at 10 µM [6]: 14%
- inhibition of growth at 10 µM [8]: 13%
- inhibition of growth at 10 µM [9]: 43%
- inhibition of growth at 10 µM [10]: 25%
- inhibition of growth at 10 µM (Malme-3M): 10%
- inhibition of growth at 10 µM (M14): 21%
- inhibition of growth at 10 µM (MDA-MB-435): 53%
- inhibition of growth at 10 µM (SK-MEL-2): 14%
- inhibition of growth at 10 µM (SK-MEL-28): 17%
- inhibition of growth at 10 µM (SK-MEL-5): 23%
- inhibition of growth at 10 µM [27]: 18%
- inhibition of growth at 10 µM [11]: 23%
- inhibition of growth at 10 µM [13]: 16%
- inhibition of growth at 10 µM [14]: 32%
- inhibition of growth at 10 µM [16]: 13%
- inhibition of growth at 10 µM [17]: 25%
- inhibition of growth at 10 µM (786-0): 11%
- inhibition of growth at 10 µM (A498): 38%
- inhibition of growth at 10 µM (ACHN): 10%
- inhibition of growth at 10 µM [19]: 12%
- inhibition of growth at 10 µM [20]: 14%
- inhibition of growth at 10 µM [21]: 49%
- inhibition of growth at 10 µM [22]: 18%
- inhibition of growth at 10 µM (MDA-MB-231): 23%
- inhibition of growth at 10 µM [28]: 21%
- inhibition of growth at 10 µM (T47D): 19%
- inhibition of growth at 10 µM (MDA-MB-468): 31%
- inhibition of growth at 10 µM [29]: 11%
